# Experiment: UVA:UVB ratio (radiation absorbed 320-400 nm vs 290-320 nm) of triazine compounds
# Format: physicochemical
# Details: versus diethylhexyl butamido triazone and ethylhexyl triazone
# Source text: Typically, the numerical UV-A/UV-B ratio of these compounds, defined as the ratio between the intensity of the radiation absorbed between 320 nm and 400 nm (UVA fraction) and that absorbed between 290 nm and 320 nm (UVB fraction), is greater than 0.20, and preferably greater than 0.30, whereas in the analogous triazine compounds with a 4-aminobenzoate or 4-aminobenzamide substituent different from the substituents described in Formula (IV), it is below about 0.14.
# The UVA:UVB ratio is the ratio between the intensity of the radiation absorbed between 320 nm and 400 nm (UVA fraction) and that absorbed between 290 nm and 320 nm (UVB fraction).
row,UVA fraction relative to triazine analogues already known,SMILES
1,at least twice as high,CCCCC(CC)COC(=O)c1ccc(NC(=O)c2ccc(Nc3nc(Nc4ccc(C(=O)NC(C)(C)C)cc4)nc(Nc4ccc(C(=O)OCC(CC)CCCC)cc4)n3)cc2)cc1 (stereo not drawn) [Compound of formula (VI)]
2,at least twice as high,CCCCC(CC)COC(=O)c1ccc(NC(=O)c2ccc(Nc3nc(Nc4ccc(C(=O)Nc5ccc(C(=O)OCC(CC)CCCC)cc5)cc4)nc(Nc4ccc(C(=O)NC(C)(C)C)cc4)n3)cc2)cc1 (stereo not drawn) [Compound of formula (V)]
3,at least twice as high,CCCCC(CC)COC(=O)c1ccc(NC(=O)c2ccc(Nc3nc(Nc4ccc(C(=O)OCC(CC)CCCC)cc4)nc(Nc4ccc(C(=O)OCC(CC)CCCC)cc4)n3)cc2)cc1 (stereo not drawn) [Compound of formula (VII)]

# From patent US20180030001A1, “NEW TRIAZINE COMPOUNDS AS PHOTOSTABILIZING AGENTS” (3V Sigma S.P.A., priority 2016, published 2018)
